Source: patent US20260258032A1, “TYROSINE KINASE 2 INHIBITORS AND USES THEREOF” (BIOGEN MA INC., priority 2022, published 2026)
Counter-ions that a name gives are not always drawn.

Molecular target: T1, JH2 domain of human Tyk2 (Homo sapiens, UniProt P29597)
T1 construct: 10×His-tagged TYK2 JH2 domain (amino acid 575-876)
Assay: JH2 biochemical assay (TR-FRET probe displacement)
Type: binding
Description: The inhibitory potency of compounds of the disclosure against the kinase activity of recombinantly generated JH2 domain of human Tyk2 was evaluated in a plate-based assay using a TR-FRET assay platform. Briefly, 2 nM of recombinant JH2 domain [10×His-tagged TYK2 JH2 domain (amino acid 575-876)] was combined with 2 nM probe ((S)-6-amino-9-(2-carboxy-4-((1-(3-(8-methyl-5-(methylamino)-8H-imidazo[4,5-d]thiazolo[5,4-b]pyridin-2-yl)phenyl)ethyl)carbamoyl)phenyl)-3-iminio-5-sulfo-3H-xanthene-4-sulfonate), 0.1 nM Tb-labeled anti-His antibody, and compounds of disclosure for 60 minutes. Compounds are tested at either […] top concentration, 10 points of 3-fold dilution. The TR-FRET signal […] by compounds and signal was calculated by taking the ratio of fluorescence at 520 nm and 495 nm. The data was normalized and the percent activity versus log concentration of compound was fitted with a 4-parameter logistic model to generate IC50 curves.

T1 sequence (P29597 575-876): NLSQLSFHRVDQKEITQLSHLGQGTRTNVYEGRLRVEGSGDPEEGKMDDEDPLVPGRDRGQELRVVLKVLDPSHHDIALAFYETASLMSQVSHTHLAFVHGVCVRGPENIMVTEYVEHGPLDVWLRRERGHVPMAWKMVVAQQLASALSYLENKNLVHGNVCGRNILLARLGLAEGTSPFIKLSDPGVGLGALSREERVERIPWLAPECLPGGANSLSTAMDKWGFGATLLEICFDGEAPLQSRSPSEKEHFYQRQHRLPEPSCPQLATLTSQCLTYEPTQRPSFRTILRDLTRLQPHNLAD

Row | SMILES | IC50 (JH2 biochemical assay) [nM] | IC50 (TR-FRET probe displacement, JH2 domain of human Tyk2) [nM]
1 | CC(=O)Nc1cc2c(cn1)C1(CC1)CN2c1cc(C)nc(C)n1 [Example 68, N-(1′-(2,6-dimethylpyrimidin-4-yl)-1′,2′-dihydrospiro[cyclopropane-1,3′-pyrrolo[3,2-c]pyridin]-6′-yl)acetamide] | 10 to 100 | –
2 | CC(=O)Nc1cc2c(cn1)C1(CC1)CN2c1cc(O[C@@H]2COC[C@H]2F)nc(C(C)(F)F)n1 (racemic) [Example 150, Trans-rac-N-(1′-(2-(1,1-difluoroethyl)-6-(((3RS,4R)-4-fluorotetrahydrofuran-3-yl)oxy)pyrimidin-4-yl)-1′,2′-dihydrospiro[cyclopropane-1,3′-pyrrolo[3,2-c]pyridin]-6′-yl)acetamide trifluoroacetate] | 10 to 100 | –
3 | CC(=O)Nc1cc2c(cn1)C1(CCCC1)CN2c1ccnc(C(C)(F)F)n1 [Example 44, N-(1′-(2-(1,1-difluoroethyl)pyrimidin-4-yl)-1′,2′-dihydrospiro[cyclopentane-1,3′-pyrrolo[3,2-c]pyridin]-6′-yl)acetamide] | 100 to 1000 | –
4 | CC(=O)Nc1cc2c(cn1)C1(CCC1)CN2c1nccc(C(C)(F)F)n1 [Example 40, N-(1′-(4-(1,1-difluoroethyl)pyrimidin-2-yl)-1′,2′-dihydrospiro[cyclobutane-1,3′-pyrrolo[3,2-c]pyridin]-6′-yl)acetamide] | 10 to 100 | –
5 | CCN1CC(Oc2cc(N3CC4(CC4)c4cnc(NC(C)=O)cc43)nc(C(C)(F)F)n2)C1 [Example 148, N-(1′-(2-(1,1-difluoroethyl)-6-((1-ethylazetidin-3-yl)oxy)pyrimidin-4-yl)-1′,2′-dihydrospiro[cyclopropane-1,3′-pyrrolo[3,2-c]pyridin]-6′-yl)acetamide trifluoroacetate] | ≥ 1000 | –
6 | CC(=O)Nc1cc2c(cn1)C1(CC1)CN2c1cc(C)cc(-c2cnn(C)c2C(F)F)n1 [Example 262, N-(1′-(6-(5-(difluoromethyl)-1-methyl-1H-pyrazol-4-yl)-4-methylpyridin-2-yl)-1′,2′-dihydrospiro[cyclopropane-1,3′-pyrrolo[3,2-c]pyridin]-6′-yl)acetamide trifluoroacetate] | 10 to 100 | –
7 | CC(=O)Nc1cc2c(cn1)C1(CC1)CN2c1cc(C)nc(C2CCN(C(C)C)CC2)n1 [Example 121, N-(1′-(2-(1-isopropylpiperidin-4-yl)-6-methylpyrimidin-4-yl)-1′,2′-dihydrospiro[cyclopropane-1,3′-pyrrolo[3,2-c]pyridin]-6′-yl)acetamide] | ≥ 1000 | –
8 | CC(=O)Nc1cc2c(cn1)C1(CC1)CN2c1cc(C)nc(-c2cnn(C3CNC3)c2)n1 [Example 269, N-(1′-(2-(1-(azetidin-3-yl)-1H-pyrazol-4-yl)-6-methylpyrimidin-4-yl)-1′,2′-dihydrospiro[cyclopropane-1,3′-pyrrolo[3,2-c]pyridin]-6′-yl)acetamide trifluoroacetate] | 100 to 1000 | –
9 | CC(=O)Nc1cc2c(cn1)C1(CCNCC1)CN2c1cccc(C(C)(F)F)n1 [Example 272, N-(1′-(6-(1,1-difluoroethyl)pyridin-2-yl)-1′,2′-dihydrospiro[piperidine-4,3′-pyrrolo[3,2-c]pyridin]-6′-yl)acetamide] | ≥ 1000 | –
10 | CC(=O)Nc1cc2c(cn1)C1(CC1)CN2c1nc(C)cc(=O)[nH]1 [Example 135, N-(1′-(4-methyl-6-oxo-1,6-dihydropyrimidin-2-yl)-1′,2′-dihydrospiro[cyclopropane-1,3′-pyrrolo[3,2-c]pyridin]-6′-yl)acetamide] | ≥ 1000 | –
11 | CC(=O)Nc1cc2c(cn1)C1(CC1C)CN2c1nccc(C(C)(F)F)n1 (centres unmarked) [Example 36, N-(1′-(4-(1,1-difluoroethyl)pyrimidin-2-yl)-2-methyl-1′,2′-dihydrospiro[cyclopropane-1,3′-pyrrolo[3,2-c]pyridin]-6′-yl)acetamide] | 10 to 100 | –
12 | CC(=O)Nc1cc2c(cn1)C1(CC1)CN2c1ccnc(C2COC2)n1 [Example 3, N-(1′-(2-(oxetan-3-yl)pyrimidin-4-yl)-1′,2′-dihydrospiro[cyclopropane-1,3′-pyrrolo[3,2-c]pyridin]-6′-yl)acetamide] | 10 to 100 | –
13 | CC(=O)Nc1cc2c(cn1)C1(CCOCC1)CN2c1ccnc(C(C)(F)F)n1 [Example 47, N-(1′-(2-(1,1-difluoroethyl)pyrimidin-4-yl)-1′,2,2′,3,5,6-hexahydrospiro[pyran-4,3′-pyrrolo[3,2-c]pyridin]-6′-yl)acetamide] | ≥ 1000 | –
14 | CC(=O)Nc1cc2c(cn1)C1(CC1)CN2c1cc(C)cc(-c2cn(C)nc2C(F)(F)F)n1 [Example 261, N-(1′-(4-methyl-6-(1-methyl-3-(trifluoromethyl)-1H-pyrazol-4-yl)pyridin-2-yl)-1′,2′-dihydrospiro[cyclopropane-1,3′-pyrrolo[3,2-c]pyridin]-6′-yl)acetamide trifluoroacetate] | ≥ 1000 | –
15 | CC(=O)Nc1cc2c(cn1)C1(CC1)CN2c1cc(C)nc(OCC(F)(F)F)n1 [Example 361, N-(1′-(6-methyl-2-(2,2,2-trifluoroethoxy)pyrimidin-4-yl)-1′,2′-dihydrospiro[cyclopropane-1,3′-pyrrolo[3,2-c]pyridin]-6′-yl)acetamide trifluoroacetate] | 10 to 100 | –
16 | COC1CCCN(c2nc(C)cc(N3CC4(CC4)c4cnc(NC(C)=O)cc43)n2)C1 (centres unmarked) [Example 230, N-(1′-(2-(3-methoxypiperidin-1-yl)-6-methylpyrimidin-4-yl)-1′,2′-dihydrospiro[cyclopropane-1,3′-pyrrolo[3,2-c]pyridin]-6′-yl)acetamide] | 100 to 1000 | –
17 | CC(=O)Nc1cc2c(cn1)C1(CC1)CN2c1cc(C)nc(OCC2CCO2)n1 (centres unmarked) [Example 380, N-(1′-(6-methyl-2-(oxetan-2-ylmethoxy)pyrimidin-4-yl)-1′,2′-dihydrospiro[cyclopropane-1,3′-pyrrolo[3,2-c]pyridin]-6′-yl)acetamide trifluoroacetate] | – | 10 to 100
18 | COC(C)(C)c1nccc(N2CC3(CC3)c3cnc(NC(C)=O)cc32)n1 [Example 132, N-(1′-(2-(2-methoxypropan-2-yl)pyrimidin-4-yl)-1′,2′-dihydrospiro[cyclopropane-1,3′-pyrrolo[3,2-c]pyridin]-6′-yl)acetamide] | 10 to 100 | –
19 | CC(=O)Nc1cc2c(cn1)C1(CC1)CN2c1cc(C)nc(C2CCCCN2C)n1 (centres unmarked) [Example 118, N-(1′-(6-methyl-2-(1-methylpiperidin-2-yl)pyrimidin-4-yl)-1′,2′-dihydrospiro[cyclopropane-1,3′-pyrrolo[3,2-c]pyridin]-6′-yl)acetamide] | ≥ 1000 | –
20 | CC(=O)Nc1cc2c(cn1)CCN2c1ccnc(C(C)(F)F)n1 [Example 30, N-(1-(2-(1,1-difluoroethyl)pyrimidin-4-yl)-2,3-dihydro-1H-pyrrolo[3,2-c]pyridin-6-yl)acetamide] | 100 to 1000 | –
21 | CC(=O)Nc1cc2c(cn1)C1(CCNCC1)CN2c1ccnc(C(C)(F)F)n1 [Example 271, N-(1′-(2-(1,1-difluoroethyl)pyrimidin-4-yl)-1′,2′-dihydrospiro[piperidine-4,3′-pyrrolo[3,2-c]pyridin]-6′-yl)acetamide] | ≥ 1000 | –
22 | CC(=O)Nc1cc2c(cn1)C1(CC1)CN2c1ncc(C)s1 [Example 78, N-(1′-(5-methylthiazol-2-yl)-1′,2′-dihydrospiro[cyclopropane-1,3′-pyrrolo[3,2-c]pyridin]-6′-yl)acetamide trifluoroacetate] | 10 to 100 | –
23 | CC(=O)Nc1cc2c(cn1)C1(CCOCC1)CN2c1cccc(C(C)(F)F)n1 [Example 48, N-(1′-(6-(1,1-difluoroethyl)pyridin-2-yl)-1′,2,2′,3,5,6-hexahydrospiro[pyran-4,3′-pyrrolo[3,2-c]pyridin]-6′-yl)acetamide] | 100 to 1000 | –
24 | COC(C)c1nccc(N2CC3(CC3)c3cnc(NC(C)=O)cc32)n1 (centres unmarked) [Example 131, N-(1′-(2-(1-methoxyethyl)pyrimidin-4-yl)-1′,2′-dihydrospiro[cyclopropane-1,3′-pyrrolo[3,2-c]pyridin]-6′-yl)acetamide] | 10 to 100 | –
25 | CC(=O)Nc1cc2c(cn1)C1(CC1)CN2c1cc(C)[nH]c(=O)n1 [Example 134, N-(1′-(6-methyl-2-oxo-1,2-dihydropyrimidin-4-yl)-1′,2′-dihydrospiro[cyclopropane-1,3′-pyrrolo[3,2-c]pyridin]-6′-yl)acetamide] | ≥ 1000 | –
26 | CC(=O)Nc1cc2c(cn1)C1(CC1)CN2c1nccs1 [Example 77, N-(1′-(thiazol-2-yl)-1′,2′-dihydrospiro[cyclopropane-1,3′-pyrrolo[3,2-c]pyridin]-6′-yl)acetamide trifluoroacetate] | 100 to 1000 | –
27 | CC(=O)Nc1cc2c(cn1)C1(CC1)CN2c1cc(C)cc(-c2cnn(C3CNC3)c2)n1 [Example 268, N-(1′-(6-(1-(azetidin-3-yl)-1H-pyrazol-4-yl)-4-methylpyridin-2-yl)-1′,2′-dihydrospiro[cyclopropane-1,3′-pyrrolo[3,2-c]pyridin]-6′-yl)acetamide trifluoroacetate] | 100 to 1000 | –
28 | CC(=O)Nc1cc2c(cn1)C1(CC1)CN2c1cc(NC(C)=O)nc(C(C)(F)F)n1 [Example 15, N-(1′-(6-acetamido-2-(1,1-difluoroethyl)pyrimidin-4-yl)-1′,2′-dihydrospiro[cyclopropane-1,3′-pyrrolo[3,2-c]pyridin]-6′-yl)acetamide] | ≤ 10 | –
29 | COc1ccc(-c2cc(C)cc(N3CC4(CC4)c4cnc(NC(C)=O)cc43)n2)cn1 [Example 267, N-(1′-(6′-methoxy-4-methyl-[2,3′-bipyridin]-6-yl)-1′,2′-dihydrospiro[cyclopropane-1,3′-pyrrolo[3,2-c]pyridin]-6′-yl)acetamide trifluoroacetate] | 100 to 1000 | –
